Results reported in article PMC4550094 (Journal of biomolecular screening, 2013).

tested on: HepG2 cells; test: LipidTOX Red PLD assay, qHTS, 1536-well high-content imaging; type: cell-based, Human; conditions: HepG2, primary screen and cherry-pick confirmation

| SMILES | PLD induction (result in words) |
| --- | --- |
| CC(C)(C)c1ccc(C(=O)CCCN2CCC(OC(c3ccccc3)c3ccccc3)CC2)cc1 [Ebastine] | significantly induced PLD formation |
| Fc1ccc([C@@H]2CCNC[C@H]2COc2ccc3c(c2)OCO3)cc1 [Paroxetine] | induce PLD |
| CCN(CC)CCCC(C)Nc1c2ccc(Cl)cc2nc2ccc(OC)cc12 (centres unmarked) [Quinacrine] | induce PLD |
| CC(CN(C)C)CN1c2ccccc2CCc2ccccc21 (centres unmarked) [Trimipramine] | induce PLD |

same assay, conditions: Homo sapiens, HepG2, 24 h, read-out: Confirmation EC50 (PLD induction)

| SMILES | EC50 |
| --- | --- |
| CN(C)CCC=C1c2ccccc2CCc2ccccc21 [Amitriptyline] | 4.6 ± 0.5 µM |
| CC(=O)N1CCN(c2ccc(OCC3COC(Cn4ccnc4)(c4ccc(Cl)cc4Cl)O3)cc2)CC1 (centres unmarked) [Ketoconazole] | 5.4 ± 2 µM |
| Fc1ccc([C@@H]2CCNC[C@H]2COc2ccc3c(c2)OCO3)cc1 [Paroxetine] | 3 ± 0.7 µM |
| N=C(N)c1ccc(OCCCCCOc2ccc(C(=N)N)cc2)cc1 [Pentamidine] | 2.8 ± 2.4 µM |
| CCN(CC)CCCC(C)Nc1c2ccc(Cl)cc2nc2ccc(OC)cc12 (centres unmarked) [Quinacrine] | 1 ± 0.2 µM |
| C=C[C@H]1C[N@@]2CC[C@H]1C[C@@H]2[C@@H](O)c1ccnc2ccc(OC)cc12 [Quinidine] | 13.4 ± 2 µM |
| CC(CN(C)C)CN1c2ccccc2CCc2ccccc21 (centres unmarked) [Trimipramine] | 8.7 ± 1.2 µM |
| CN(C)C/C=C(/c1ccc(Br)cc1)c1cccnc1 [Zimelidine] | 27.4 ± 1.5 µM |

same assay, conditions: Homo sapiens, HepG2, 24 h, read-out: Primary Screen EC50 (PLD induction)

| SMILES | EC50 |
| --- | --- |
| CN(C)CCC=C1c2ccccc2CCc2ccccc21 [Amitriptyline] | 10 µM |
| CC(=O)N1CCN(c2ccc(OCC3COC(Cn4ccnc4)(c4ccc(Cl)cc4Cl)O3)cc2)CC1 (centres unmarked) [Ketoconazole] | 2.8 µM |
| Fc1ccc([C@@H]2CCNC[C@H]2COc2ccc3c(c2)OCO3)cc1 [Paroxetine] | 5.6 µM |
| N=C(N)c1ccc(OCCCCCOc2ccc(C(=N)N)cc2)cc1 [Pentamidine] | 1.4 µM |
| CCN(CC)CCCC(C)Nc1c2ccc(Cl)cc2nc2ccc(OC)cc12 (centres unmarked) [Quinacrine] | 5 µM |
| C=C[C@H]1C[N@@]2CC[C@H]1C[C@@H]2[C@@H](O)c1ccnc2ccc(OC)cc12 [Quinidine] | 15.8 µM |
| CC(CN(C)C)CN1c2ccccc2CCc2ccccc21 (centres unmarked) [Trimipramine] | 3.5 µM |
| CN(C)C/C=C(/c1ccc(Br)cc1)c1cccnc1 [Zimelidine] | 14.1 µM |

tested on: I13-35 cells; test: not given; conditions: read-out: Literature-Reported EC50; I13-35 cells; cited from earlier work

| SMILES | EC50 |
| --- | --- |
| CN(C)C/C=C(/c1ccc(Br)cc1)c1cccnc1 [Zimelidine] | 30.4 µM |

tested on: HepG2 cells; test: not given; conditions: cited from earlier work

| SMILES | Literature-Reported: Active at (concentration) |
| --- | --- |
| CN1CCN(C2=Nc3cc(Cl)ccc3Nc3ccccc32)CC1 [Clozapine] | Active at 16 µM |
| CN(C)CCC=C1c2ccccc2COc2ccccc21 [Doxepin] | Active at 25 µM |
| CC(=O)N1CCN(c2ccc(OCC3COC(Cn4ccnc4)(c4ccc(Cl)cc4Cl)O3)cc2)CC1 (centres unmarked) [Ketoconazole] | Active at 8.3 µM |
| CCOC(=O)N1CCC(=C2c3ccc(Cl)cc3CCc3cccnc32)CC1 [Loratadine] | Active at 16 µM |

same assay, conditions: read-out: Literature-Reported EC50; cited from earlier work

| SMILES | EC50 |
| --- | --- |
| CN(C)CCC=C1c2ccccc2CCc2ccccc21 [Amitriptyline] | 15 µM |
| N=C(N)c1ccc(OCCCCCOc2ccc(C(=N)N)cc2)cc1 [Pentamidine] | 8.3 µM |
| C=C[C@H]1C[N@@]2CC[C@H]1C[C@@H]2[C@@H](O)c1ccnc2ccc(OC)cc12 [Quinidine] | 25 µM |

tested on: H4 cells; test: not given; conditions: cited from earlier work

| SMILES | Literature-Reported: Active at (concentration) |
| --- | --- |
| Fc1ccc([C@@H]2CCNC[C@H]2COc2ccc3c(c2)OCO3)cc1 [Paroxetine] | Active at 5 µM |

tested on: Rat brain; test: not given; conditions: cited from earlier work

| SMILES | Literature-Reported: Active at (dose) |
| --- | --- |
| CCN(CC)CCCC(C)Nc1c2ccc(Cl)cc2nc2ccc(OC)cc12 (centres unmarked) [Quinacrine] | Active at 60 mg/kg |

tested on: isolated lamellar bodies; test: not given; conditions: Binding study; cited from earlier work

| SMILES | Literature-Reported: Active at (concentration) |
| --- | --- |
| CC(CN(C)C)CN1c2ccccc2CCc2ccccc21 (centres unmarked) [Trimipramine] | Active at 1 mM |

tested on: hERG channel; test: not given; conditions: cited from earlier work

| SMILES | HERG channel block |
| --- | --- |
| CC(C)(C)c1ccc(C(=O)CCCN2CCC(OC(c3ccccc3)c3ccccc3)CC2)cc1 [Ebastine] | blocking |
